The source of these data is the supplement of paper PMC11208160.

A short description of the data set: recombinant barcode read abundance after kanamycin selection (control-corrected) (log10(CPM+1)); higher = more efficient recombination; sequences stand for … in AGTGCAGAGAAAATCGGCCAGTTTTCTCTGCCTGCAGTCCGCATGCCGT…ATTTATGCAGCGGACTGCCTTTCTCCCAAAGTGATAAACCGGACAGTATCATGGACCGGTTTTCCCGGTAATCCGTATTTGCAAGGTTGGTTTCACT; site = the 11-nt target. The essentials: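 Reported as log10(CPM+1), each value stands for recombination efficiency. That efficiency is the averaged, control-corrected counts per million of barcodes found at recombinant junctions. Cells from a pooled E. coli library pairing targets with IS621 bridge RNA target-binding loops were plated twice on chloramphenicol/ampicillin LB agar (control) and twice on chloramphenicol/ampicillin/kanamycin with 0.1 mM IPTG.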
For the sequence “GCGCGACCTTGGGTTCTAACCTGTTGCTTCA [GCGCGACCTAA_LTGcore_CT_RTGcore_TG] (site GCGCGACCTAA) (LTG core: CT, RTG core: TG)”, the “recombinant barcode read abundance (log10)” value amounted to 0.481.

Take “GCGCGACCTTGGGTTCTAACCTGTTGCTTCG [GCGCGACCTAA_LTGcore_CT_RTGcore_CG] (site GCGCGACCTAA) (LTG core: CT, RTG core: CG)”: the “recombinant barcode read abundance (log10)” value is 0.116.

Take “GCGCGACCTTGGGTTCTAACCTGTTGCTTTT [GCGCGACCTAA_LTGcore_CT_RTGcore_AA] (site GCGCGACCTAA) (LTG core: CT, RTG core: AA)”: the “recombinant barcode read abundance (log10)” value stood at 0.0792.

As for “GCGCGACTCTGGGTTCTAACCTGTTGCTTAG [GCGCGACCTAA_LTGcore_TC_RTGcore_CT] (site GCGCGACCTAA) (LTG core: TC, RTG core: CT)”, the “recombinant barcode read abundance (log10)” value amounted to 0.

In the case of “GCGCGACTGTGGGTTCTAACCTGTTGCTTCA [GCGCGACCTAA_LTGcore_TG_RTGcore_TG] (site GCGCGACCTAA) (LTG core: TG, RTG core: TG)”, the “recombinant barcode read abundance (log10)” value is 0.0758.

With “GCGCGACTTTGGGTTCTAACCTGTTGCTTAG [GCGCGACCTAA_LTGcore_TT_RTGcore_CT] (site GCGCGACCTAA) (LTG core: TT, RTG core: CT)”, the “recombinant barcode read abundance (log10)” value stood at 0.109.

Take “GCGGGACATTGGGTTCTAACCTGTTGCCTAG [GCGGGACCTAG_LTGcore_AT_RTGcore_CT] (site GCGGGACCTAG) (LTG core: AT, RTG core: CT)”: the “recombinant barcode read abundance (log10)” value is 0.17.

Turning to “GCGGGACCATGGGTTCTAACCTGTTGCCTTG [GCGGGACCTAG_LTGcore_CA_RTGcore_CA] (site GCGGGACCTAG) (LTG core: CA, RTG core: CA)”, the “recombinant barcode read abundance (log10)” value came out at 0.182.

For the sequence “GCGGGACCCTGGGTTCTAACCTGTTGCCTAG [GCGGGACCTAG_LTGcore_CC_RTGcore_CT] (site GCGGGACCTAG) (LTG core: CC, RTG core: CT)”, the “recombinant barcode read abundance (log10)” value is 1.21.

Regarding “GCGGGACCGTGGGTTCTAACCTGTTGCCTAG [GCGGGACCTAG_LTGcore_CG_RTGcore_CT] (site GCGGGACCTAG) (LTG core: CG, RTG core: CT)”, the “recombinant barcode read abundance (log10)” value came out at 0.76.

With “GCGGGACCTTGGGTTCTAACCTGTTGCCTGC [GCGGGACCTAG_LTGcore_CT_RTGcore_GC] (site GCGGGACCTAG) (LTG core: CT, RTG core: GC)”, the “recombinant barcode read abundance (log10)” value was 1.08.

With “GCGGGACCTTGGGTTCTAACCTGTTGCCTTA [GCGGGACCTAG_LTGcore_CT_RTGcore_TA] (site GCGGGACCTAG) (LTG core: CT, RTG core: TA)”, the “recombinant barcode read abundance (log10)” value turned out to be 1.18.

Consider “GCGGGACCTTGGGTTCTAACCTGTTGCCTTC [GCGGGACCTAG_LTGcore_CT_RTGcore_GA] (site GCGGGACCTAG) (LTG core: CT, RTG core: GA)”, for which the “recombinant barcode read abundance (log10)” value worked out at 1.19.

Turning to “GCGGGACGTTGGGTTCTAACCTGTTGCCTAC [GCGGGACCTAG_LTGcore_GT_RTGcore_GT] (site GCGGGACCTAG) (LTG core: GT, RTG core: GT)”, the “recombinant barcode read abundance (log10)” value was 0.163.

Consider “GCGGGACTTTGGGTTCTAACCTGTTGCCTAG [GCGGGACCTAG_LTGcore_TT_RTGcore_CT] (site GCGGGACCTAG) (LTG core: TT, RTG core: CT)”, for which the “recombinant barcode read abundance (log10)” value is 0.13.

Regarding “GGACACCATTGGGTTCTAACCTGTTGCCTAG [GGACACCCTAG_LTGcore_AT_RTGcore_CT] (site GGACACCCTAG) (LTG core: AT, RTG core: CT)”, the “recombinant barcode read abundance (log10)” value was found to be 0.15.

On to “GGACACCATTGGGTTCTAACCTGTTGCCTAT [GGACACCCTAG_LTGcore_AT_RTGcore_AT] (site GGACACCCTAG) (LTG core: AT, RTG core: AT)”, for which the “recombinant barcode read abundance (log10)” value stood at 0.145.

Regarding “GGACACCCTTGGGTTCTAACCTGTTGCCTAA [GGACACCCTAG_LTGcore_CT_RTGcore_TT] (site GGACACCCTAG) (LTG core: CT, RTG core: TT)”, the “recombinant barcode read abundance (log10)” value amounted to 1.19.

On to “GGACACCCTTGGGTTCTAACCTGTTGCCTCC [GGACACCCTAG_LTGcore_CT_RTGcore_GG] (site GGACACCCTAG) (LTG core: CT, RTG core: GG)”, for which the “recombinant barcode read abundance (log10)” value stood at 0.904.

“GGACACCCTTGGGTTCTAACCTGTTGCCTCT [GGACACCCTAG_LTGcore_CT_RTGcore_AG] (site GGACACCCTAG) (LTG core: CT, RTG core: AG)”: the “recombinant barcode read abundance (log10)” value turned out to be 0.545.

Take “GGACACCCTTGGGTTCTAACCTGTTGCCTGG [GGACACCCTAG_LTGcore_CT_RTGcore_CC] (site GGACACCCTAG) (LTG core: CT, RTG core: CC)”: the “recombinant barcode read abundance (log10)” value is 0.503.

Take “GGACACCCTTGGGTTCTAACCTGTTGCCTTA [GGACACCCTAG_LTGcore_CT_RTGcore_TA] (site GGACACCCTAG) (LTG core: CT, RTG core: TA)”: the “recombinant barcode read abundance (log10)” value worked out at 1.36.

With “GGACACCCTTGGGTTCTAACCTGTTGCCTTT [GGACACCCTAG_LTGcore_CT_RTGcore_AA] (site GGACACCCTAG) (LTG core: CT, RTG core: AA)”, the “recombinant barcode read abundance (log10)” value was found to be 1.04.

Regarding “GGACACCGCTGGGTTCTAACCTGTTGCCTGC [GGACACCCTAG_LTGcore_GC_RTGcore_GC] (site GGACACCCTAG) (LTG core: GC, RTG core: GC)”, the “recombinant barcode read abundance (log10)” value is 0.0534.

Regarding “GGACACCGGTGGGTTCTAACCTGTTGCCTCC [GGACACCCTAG_LTGcore_GG_RTGcore_GG] (site GGACACCCTAG) (LTG core: GG, RTG core: GG)”, the “recombinant barcode read abundance (log10)” value is 0.0801.

For the sequence “GGACACCGTTGGGTTCTAACCTGTTGCCTAC [GGACACCCTAG_LTGcore_GT_RTGcore_GT] (site GGACACCCTAG) (LTG core: GT, RTG core: GT)”, the “recombinant barcode read abundance (log10)” value was determined as 0.944.

For “GGACACCTATGGGTTCTAACCTGTTGCCTAG [GGACACCCTAG_LTGcore_TA_RTGcore_CT] (site GGACACCCTAG) (LTG core: TA, RTG core: CT)”, the “recombinant barcode read abundance (log10)” value is 0.094.

Regarding “GGACACCTATGGGTTCTAACCTGTTGCCTTA [GGACACCCTAG_LTGcore_TA_RTGcore_TA] (site GGACACCCTAG) (LTG core: TA, RTG core: TA)”, the “recombinant barcode read abundance (log10)” value turned out to be 0.

For “GGCTCCCAATGGGTTCTAACCTGTTGCGGTT [GGCTCCCCTCC_LTGcore_AA_RTGcore_AA] (site GGCTCCCCTCC) (LTG core: AA, RTG core: AA)”, the “recombinant barcode read abundance (log10)” value is 0.102.

Regarding “GGCTCCCCATGGGTTCTAACCTGTTGCGGAG [GGCTCCCCTCC_LTGcore_CA_RTGcore_CT] (site GGCTCCCCTCC) (LTG core: CA, RTG core: CT)”, the “recombinant barcode read abundance (log10)” value worked out at 0.0917.

“GGCTCCCCTTGGGTTCTAACCTGTTGCGGAT [GGCTCCCCTCC_LTGcore_CT_RTGcore_AT] (site GGCTCCCCTCC) (LTG core: CT, RTG core: AT)”: the “recombinant barcode read abundance (log10)” value is 0.0958.

In the case of “GGCTCCCCTTGGGTTCTAACCTGTTGCGGCC [GGCTCCCCTCC_LTGcore_CT_RTGcore_GG] (site GGCTCCCCTCC) (LTG core: CT, RTG core: GG)”, the “recombinant barcode read abundance (log10)” value is 0.131.

As to “GGCTCCCCTTGGGTTCTAACCTGTTGCGGTA [GGCTCCCCTCC_LTGcore_CT_RTGcore_TA] (site GGCTCCCCTCC) (LTG core: CT, RTG core: TA)”, the “recombinant barcode read abundance (log10)” value stood at 0.101.

Regarding “GGCTCCCCTTGGGTTCTAACCTGTTGCGGTC [GGCTCCCCTCC_LTGcore_CT_RTGcore_GA] (site GGCTCCCCTCC) (LTG core: CT, RTG core: GA)”, the “recombinant barcode read abundance (log10)” value was 0.0253.

“GGCTCCCCTTGGGTTCTAACCTGTTGCGGTG [GGCTCCCCTCC_LTGcore_CT_RTGcore_CA] (site GGCTCCCCTCC) (LTG core: CT, RTG core: CA)”: the “recombinant barcode read abundance (log10)” value was 0.251.

Turning to “GGCTCCCGGTGGGTTCTAACCTGTTGCGGCC [GGCTCCCCTCC_LTGcore_GG_RTGcore_GG] (site GGCTCCCCTCC) (LTG core: GG, RTG core: GG)”, the “recombinant barcode read abundance (log10)” value amounted to 0.203.

Regarding “GGCTCCCGTTGGGTTCTAACCTGTTGCGGAC [GGCTCCCCTCC_LTGcore_GT_RTGcore_GT] (site GGCTCCCCTCC) (LTG core: GT, RTG core: GT)”, the “recombinant barcode read abundance (log10)” value stood at 0.259.

As for “GGCTCCCTTTGGGTTCTAACCTGTTGCGGAA [GGCTCCCCTCC_LTGcore_TT_RTGcore_TT] (site GGCTCCCCTCC) (LTG core: TT, RTG core: TT)”, the “recombinant barcode read abundance (log10)” value was 0.0992.

For the sequence “GGCTCCCTTTGGGTTCTAACCTGTTGCGGAG [GGCTCCCCTCC_LTGcore_TT_RTGcore_CT] (site GGCTCCCCTCC) (LTG core: TT, RTG core: CT)”, the “recombinant barcode read abundance (log10)” value worked out at 0.0927.

Consider “GGGAGCCAATGGGTTCTAACCTGTTGCTGAG [GGGAGCCCTCA_LTGcore_AA_RTGcore_CT] (site GGGAGCCCTCA) (LTG core: AA, RTG core: CT)”, for which the “recombinant barcode read abundance (log10)” value was determined as 0.235.

As for “GGGAGCCATTGGGTTCTAACCTGTTGCTGAT [GGGAGCCCTCA_LTGcore_AT_RTGcore_AT] (site GGGAGCCCTCA) (LTG core: AT, RTG core: AT)”, the “recombinant barcode read abundance (log10)” value worked out at 0.574.

For the sequence “GGGAGCCCTTGGGTTCTAACCTGTTGCTGCA [GGGAGCCCTCA_LTGcore_CT_RTGcore_TG] (site GGGAGCCCTCA) (LTG core: CT, RTG core: TG)”, the “recombinant barcode read abundance (log10)” value was 0.122.

As for “GGGAGCCCTTGGGTTCTAACCTGTTGCTGCG [GGGAGCCCTCA_LTGcore_CT_RTGcore_CG] (site GGGAGCCCTCA) (LTG core: CT, RTG core: CG)”, the “recombinant barcode read abundance (log10)” value came out at 0.147.
